Experimental data from patent US11459315B2, “Modulators of methyl modifying enzymes, compositions and uses thereof” (Constellation Pharmaceuticals, Inc., priority 2017, dated 2022).
Where two headings read alike, the source gives them in different places.

How the values were obtained:
PRC2 containing wt EZH2 = PRC2 containing wt EZH2 (Homo sapiens (Human), UniProt Q15910); assay: EZH2 biochemical assay (IC50), 3H-SAM incorporation into biotinylated H3 peptide
Protocol: EZH2 biochemical assay (IC50): Compound potencies were assessed through incorporation of ^3H-SAM into a biotinylated H3 peptide. Specifically, 30 pM PRC2 containing wt EZH2 (pentameric complex prepared in-house) was pre-incubated with 450 nM SAM, 450 nM ^3H-SAM, 2 μM H3K27me3 activating peptide (H2N-[…](Kme3)[…]-amide) and compounds (as 10 point duplicate dose response titrations in DMSO, final assay 0.8% DMSO (v/v)) for 3-5 h in 50 mM Tris (pH 8.5), 1 mM DTT, 0.07 mM Brij-35, 0.1% BSA, and 0.8% DMSO in a total volume of 12.5 μl. Reaction was initiated with biotinylated H3 substrate peptide (H2N-[…](Kme1)[…]-NTPEGBiot) as a 2 μM stock in 12.5 μl of buffer and allowed to react at room temperature for 18-22 h. Quenching was accomplished by addition of 20 μl of STOP solution (50 mM Tris (pH 8.5), 200 mM EDTA, 2 mM SAH). 35 μl of the quenched solution was transferred to streptavidin coated FlashPlates (PerkinElmer), incubated 1-2 h, washed, and read in a TopCount Reader (PerkinElmer). IC50s were calculated in Genedata Screener using non-linear least square four parameter fits, where the four parameters were IC50, Hill slope, pre-transitional baseline (0% INH), and post-transitional baseline (100% INH).
IC50 values are reported as follows: “A” indicates an IC50 value of less than 0.5 nM; “B” indicates an IC50 value of 0.5 nM to 5 nM; “C” indicates an IC50 value of greater than 5 nM for each enzyme; and “ND” is not determined.

[1] = tested on: H3K27me3 mark in HeLa cells (EZH2); assay: H3K27me3 Alpha Hela Assay (AlphaLISA); assay type: cell-based; conditions: HeLa cells, 72 hrs, read-out: EZH2 Cell H3K27me3 Alpha HeLa (EC50 K27me3)
Protocol: H3K27me3 Alpha Hela Assay (AlphaLISA). Ten different doses of each test compound (in a series of 3-fold dilutions) were plated in duplicate 384-well tissue culture treated plates (Catalog #6007680; Perkin Elmer, Waltham, Mass.). Hela cells grown in culture were trypsinized and counted using a Countess® cell counter (Catalog #C10281; Life Technologies, Grand Island, N.Y.). Cell were diluted to 67,000 cells per mL in 10% DMEM (Catalog #10569-010 Life Technologies, Grand Island, N.Y.) and 15 μL (1,000 cells) were plated into each well using the Biotek MicroFlo™ Select Dispenser (BioTek Instruments, Inc. Vermont, USA),) of the 384-well plate. Plates were incubated at 37° C./5% CO2 for 72 hrs. One of the duplicate plates was processed for HeLa assay and the other for viability.
5 μL of Cell-Histone Lysis buffer (1×) (Catalog #AL009F1 Perkin Elmer; Waltham, Mass.) per well was added to the plate processed for AlphaLISA and the plate was incubated at RT for 30 minutes on a plate shaker with low speed (Model #4625-Q Thermo Scientific; Waltham, Mass.). Then, 10 μL per well Histone Extraction buffer (catalog #AL009F2; Perkin Elmer; Waltham, Mass.) was added and the plate further incubated at RT for 20 min on plate shaker with low speed. Next, 10 μL of 5× mix of anti-K27me3 acceptor beads plus Biotinylated anti-Histone H3 (C-ter) Antibody (diluted to 3 nM final) (Catalog #AL118 Perkin Elmer; Waltham, Mass.) was added in each well. Dilution of the acceptor beads and anti-Histone H3 was done in 1× Histone Detection buffer (Catalog #AL009F3 Perkin Elmer; Waltham, Mass.) which was produced by diluting the 10× stock provided. The plate was sealed with an aluminum plate sealer and incubated at 23° C. for 60 min. Next, 10 μL 5× solution of Streptavidin Donor beads were added (Catalog #6760002 Perkin Elmer; Waltham, Mass.) (20 μg/mL final in 1× Histone Detection Buffer), =plate was sealed with Aluminum plate sealer and incubated at 23° C. for 30 min. The plates were then read using an EnVision-Alpha Reader (model #2104 Perkin Elmer; Waltham, Mass.).
Data from both assays was analyzed using Genedata (Basel, Switzerland). Data files were imported to Genedata and assay conditions were specified. A unique Analysis ID was created and the data files analysed to measure dose-dependent inhibition of H3K27me3 mark and cell viability respectively. Readout of DMSO wells were used to normalize the data. Resulting curves were fitted using Smart fit application (Genedata; Basel, Switzerland). The data was checked for quality, validated and integrated in excel format using Stardrop (Optibruim, Cambridge, UK).
EC50 values are reported as follows: “A” indicates an EC50 value of less than 10 nM; “B” indicates an EC50 value of 10 nM to 100 nM; “C” indicates an EC50 value of greater than 100 nM; and “ND” is not determined.

[2] = 30 pM PRC2 containing wt EZH2; 3-5 h pre-incubation; read-out: EZH2 (IC50)
[3] = EZH2 (IC50), 30 pM PRC2 containing wt EZH2; 3-5 h pre-incubation
[4] = read-out: EZH2 (IC50); 30 pM PRC2 containing wt EZH2; 3-5 h pre-incubation

Chain of PRC2 containing wt EZH2 (Q15910 whole entry): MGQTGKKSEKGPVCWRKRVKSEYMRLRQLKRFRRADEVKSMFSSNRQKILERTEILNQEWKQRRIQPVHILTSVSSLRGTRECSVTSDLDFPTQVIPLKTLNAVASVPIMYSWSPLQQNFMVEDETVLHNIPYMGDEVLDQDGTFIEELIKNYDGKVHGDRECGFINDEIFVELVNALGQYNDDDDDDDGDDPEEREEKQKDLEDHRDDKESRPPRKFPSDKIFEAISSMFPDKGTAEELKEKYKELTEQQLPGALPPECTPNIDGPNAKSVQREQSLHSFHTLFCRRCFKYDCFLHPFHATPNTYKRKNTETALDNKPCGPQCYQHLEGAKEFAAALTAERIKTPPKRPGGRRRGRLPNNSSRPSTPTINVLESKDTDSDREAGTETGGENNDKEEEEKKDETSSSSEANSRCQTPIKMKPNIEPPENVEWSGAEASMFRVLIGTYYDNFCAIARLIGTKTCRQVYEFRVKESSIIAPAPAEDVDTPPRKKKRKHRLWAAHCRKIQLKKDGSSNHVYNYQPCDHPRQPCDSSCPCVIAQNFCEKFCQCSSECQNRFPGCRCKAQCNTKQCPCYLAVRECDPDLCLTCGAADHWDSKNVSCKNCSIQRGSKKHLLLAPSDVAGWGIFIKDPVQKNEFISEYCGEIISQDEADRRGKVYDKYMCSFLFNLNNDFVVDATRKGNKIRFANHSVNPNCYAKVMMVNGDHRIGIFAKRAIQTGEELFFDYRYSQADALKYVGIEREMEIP
Chain of PRC2 containing wt EZH2 (O75530 whole entry partner): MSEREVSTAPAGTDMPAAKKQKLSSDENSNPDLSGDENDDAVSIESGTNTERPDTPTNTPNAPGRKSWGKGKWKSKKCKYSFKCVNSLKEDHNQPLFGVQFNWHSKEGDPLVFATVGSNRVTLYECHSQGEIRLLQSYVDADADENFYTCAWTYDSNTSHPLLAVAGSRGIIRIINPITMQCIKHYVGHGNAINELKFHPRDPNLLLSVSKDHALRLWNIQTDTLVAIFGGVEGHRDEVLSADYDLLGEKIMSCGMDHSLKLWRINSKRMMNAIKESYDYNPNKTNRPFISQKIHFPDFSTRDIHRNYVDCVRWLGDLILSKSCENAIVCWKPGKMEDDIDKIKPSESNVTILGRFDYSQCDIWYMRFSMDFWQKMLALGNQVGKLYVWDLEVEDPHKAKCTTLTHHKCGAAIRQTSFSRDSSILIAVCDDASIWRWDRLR
Chain of PRC2 containing wt EZH2 (Q15022 whole entry partner): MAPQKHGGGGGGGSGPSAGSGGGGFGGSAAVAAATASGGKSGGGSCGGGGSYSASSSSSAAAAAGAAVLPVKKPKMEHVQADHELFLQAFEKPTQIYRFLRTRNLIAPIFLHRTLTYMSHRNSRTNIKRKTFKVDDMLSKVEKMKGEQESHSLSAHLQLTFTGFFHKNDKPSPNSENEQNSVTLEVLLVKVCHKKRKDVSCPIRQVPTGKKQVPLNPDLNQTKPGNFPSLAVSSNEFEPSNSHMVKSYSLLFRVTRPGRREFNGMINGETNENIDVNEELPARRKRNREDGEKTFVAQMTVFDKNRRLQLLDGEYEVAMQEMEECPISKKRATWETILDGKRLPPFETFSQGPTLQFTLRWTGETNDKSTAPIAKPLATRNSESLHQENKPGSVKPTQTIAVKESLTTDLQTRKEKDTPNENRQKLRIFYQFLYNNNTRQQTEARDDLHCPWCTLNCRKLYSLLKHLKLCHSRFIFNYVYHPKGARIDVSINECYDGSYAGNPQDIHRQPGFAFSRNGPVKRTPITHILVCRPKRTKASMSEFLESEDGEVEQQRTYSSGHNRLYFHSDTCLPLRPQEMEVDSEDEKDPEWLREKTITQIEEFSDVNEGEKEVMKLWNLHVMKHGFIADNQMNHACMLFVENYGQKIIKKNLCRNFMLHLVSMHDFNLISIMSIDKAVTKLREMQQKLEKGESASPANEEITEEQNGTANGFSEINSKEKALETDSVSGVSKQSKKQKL
Chain of PRC2 containing wt EZH2 (Q09028 whole entry partner): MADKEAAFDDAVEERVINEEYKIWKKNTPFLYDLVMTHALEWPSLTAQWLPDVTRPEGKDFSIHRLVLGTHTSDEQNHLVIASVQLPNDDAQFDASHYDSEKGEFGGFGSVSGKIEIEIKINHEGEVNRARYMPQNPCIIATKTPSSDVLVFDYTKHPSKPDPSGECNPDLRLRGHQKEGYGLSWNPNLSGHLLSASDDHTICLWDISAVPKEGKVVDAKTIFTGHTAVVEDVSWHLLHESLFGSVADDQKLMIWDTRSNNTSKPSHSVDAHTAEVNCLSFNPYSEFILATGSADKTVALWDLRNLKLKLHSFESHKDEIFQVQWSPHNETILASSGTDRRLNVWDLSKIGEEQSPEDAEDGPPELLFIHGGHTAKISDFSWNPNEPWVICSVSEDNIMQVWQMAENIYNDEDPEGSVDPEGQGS
Chain of PRC2 containing wt EZH2 (Q6ZN18 whole entry partner): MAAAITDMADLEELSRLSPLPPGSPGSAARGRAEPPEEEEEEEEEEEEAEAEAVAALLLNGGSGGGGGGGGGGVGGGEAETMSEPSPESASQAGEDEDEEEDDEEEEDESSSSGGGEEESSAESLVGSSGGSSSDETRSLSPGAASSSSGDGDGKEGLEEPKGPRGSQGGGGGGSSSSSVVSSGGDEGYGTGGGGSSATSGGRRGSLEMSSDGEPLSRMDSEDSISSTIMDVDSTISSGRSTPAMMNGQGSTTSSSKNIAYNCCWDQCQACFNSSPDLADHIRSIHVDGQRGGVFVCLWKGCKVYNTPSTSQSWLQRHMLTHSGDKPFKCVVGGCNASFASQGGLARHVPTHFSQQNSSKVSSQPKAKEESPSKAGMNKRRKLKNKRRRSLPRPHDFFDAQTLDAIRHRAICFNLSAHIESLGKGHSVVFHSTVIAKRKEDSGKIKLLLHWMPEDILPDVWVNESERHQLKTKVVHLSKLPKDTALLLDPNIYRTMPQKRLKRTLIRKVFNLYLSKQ

Row | SMILES | EC50 ([1]; Homo sapiens, HeLa, 72 h) [nM] | EC50 [1] [nM] | IC50 (PRC2 containing wt EZH2; [3]) [nM] | IC50 (PRC2 containing wt EZH2; [4]) [nM] | also measured
1 | CSc1cc(C)[nH]c(=O)c1CNC(=O)c1c(C)n([C@H](C)C2CCC(N3CC(OC4CC4)C3)CC2)c2ncc(F)cc12 (single isomer, unassigned) [28 (isomer 1)] | < 10 | – | – | – | IC50 (PRC2 containing wt EZH2; [2]): < 0.5 nM
2 | CSc1cc(C)[nH]c(=O)c1CNC(=O)c1c(C)n([C@H](C)C2CCC(N3CC(OC4CC4)C3)CC2)c2ncc(F)cc12 (single isomer, unassigned) [28 (isomer 2)] | – | 10 to 100 | – | – | IC50 (PRC2 containing wt EZH2; [2]): < 0.5 nM
3 | CSc1cc(C)[nH]c(=O)c1CNC(=O)c1c(C)n([C@H](C)C2CCC(O)CC2)c2ncccc12 (single isomer, unassigned) [36 (isomer 1)] | 10 to 100 | – | < 0.5 | – | –
4 | CSc1cc(C)[nH]c(=O)c1CNC(=O)c1c(C)n([C@H](C)C2CCC(O)CC2)c2ncccc12 (single isomer, unassigned) [36 (isomer 2)] | – | < 10 | – | < 0.5 | –
5 | COC1CCC([C@@H](C)n2c(C)c(C(=O)NCc3c(SC)cc(C)[nH]c3=O)c3cncnc32)CC1 (single isomer, unassigned) [41 (isomer 1)] | < 10 | – | < 0.5 | – | –
6 | COC1CCC([C@@H](C)n2c(C)c(C(=O)NCc3c(SC)cc(C)[nH]c3=O)c3cncnc32)CC1 (single isomer, unassigned) [41 (isomer 2)] | – | < 10 | – | < 0.5 | –
7 | CSc1cc(C)[nH]c(=O)c1CNC(=O)c1c(C)n([C@H](C)C2CCC(O)CC2)c2cc(F)ccc12 (single isomer, unassigned) [44 (isomer 1)] | < 10 | – | < 0.5 | – | –
8 | CSc1cc(C)[nH]c(=O)c1CNC(=O)c1c(C)n([C@H](C)C2CCC(O)CC2)c2cc(F)ccc12 (single isomer, unassigned) [44 (isomer 2)] | – | < 10 | – | < 0.5 | –
9 | CSc1cc(C)[nH]c(=O)c1CNC(=O)c1c(C)n([C@H](C)C2CCC(N(C)C)CC2)c2ncccc12 (single isomer, unassigned) [51 (isomer 1)] | – | 10 to 100 | – | – | IC50 (PRC2 containing wt EZH2; [2]): < 0.5 nM
10 | CSc1cc(C)[nH]c(=O)c1CNC(=O)c1c(C)n([C@H](C)C2CCC(N(C)C)CC2)c2ncccc12 (single isomer, unassigned) [51 (isomer 2)] | – | > 100 | – | – | IC50 (PRC2 containing wt EZH2; [2]): < 0.5 nM
11 | CSc1cc(C)[nH]c(=O)c1CNC(=O)c1c(C)n([C@H](C)C2CCC(O)CC2)c2ncc(Cl)cc12 (single isomer, unassigned) [53 (isomer 1)] | 10 to 100 | – | < 0.5 | – | –
12 | CSc1cc(C)[nH]c(=O)c1CNC(=O)c1c(C)n([C@H](C)C2CCC(O)CC2)c2ncc(Cl)cc12 (single isomer, unassigned) [53 (isomer 2)] | – | < 10 | – | < 0.5 | –
13 | CSc1cc(C)[nH]c(=O)c1CNC(=O)c1c(C)n([C@H](C)C2CCC(OC(F)F)CC2)c2ccccc12 (single isomer, unassigned) [60 (isomer 1)] | < 10 | – | < 0.5 | – | –
14 | CSc1cc(C)[nH]c(=O)c1CNC(=O)c1c(C)n([C@H](C)C2CCC(OC(F)F)CC2)c2ccccc12 (single isomer, unassigned) [60 (isomer 2)] | – | < 10 | – | < 0.5 | –
15 | CSc1cc(C)[nH]c(=O)c1CNC(=O)c1c(C)n([C@H](C)C2CCC(NC3COC3)CC2)c2ncccc12 (single isomer, unassigned) [62 (isomer 1)] | – | 10 to 100 | – | – | IC50 (PRC2 containing wt EZH2; [2]): < 0.5 nM
16 | CSc1cc(C)[nH]c(=O)c1CNC(=O)c1c(C)n([C@H](C)C2CCC(NC3COC3)CC2)c2ncccc12 (single isomer, unassigned) [62 (isomer 2)] | – | – | – | – | IC50 (PRC2 containing wt EZH2; [2]): 0.5 to 5 nM; EC50 ([1]; listed as 62): > 100 nM
17 | CSc1cc(C)[nH]c(=O)c1CNC(=O)c1c(C)n([C@H](C)C2CCN(C3CC(F)C3)CC2)c2ccccc12 (single isomer, unassigned) [64 (isomer 1)] | 10 to 100 | – | < 0.5 | – | –
18 | CSc1cc(C)[nH]c(=O)c1CNC(=O)c1c(C)n([C@H](C)C2CCN(C3CC(F)C3)CC2)c2ccccc12 (single isomer, unassigned) [64 (isomer 2)] | – | 10 to 100 | – | < 0.5 | –
19 | COCCOC1CCC([C@@H](C)n2c(C)c(C(=O)NCc3c(SC)cc(C)[nH]c3=O)c3ccccc32)CC1 (single isomer, unassigned) [67 (isomer 1)] | 10 to 100 | – | – | < 0.5 | –
20 | COCCOC1CCC([C@@H](C)n2c(C)c(C(=O)NCc3c(SC)cc(C)[nH]c3=O)c3ccccc32)CC1 (single isomer, unassigned) [67 (isomer 2)] | – | < 10 | < 0.5 | – | –
21 | CSc1cc(C)[nH]c(=O)c1CNC(=O)c1c(C)n([C@H](C)[C@H]2CCN(C3CC3)CC2(F)F)c2ncccc12 (single isomer, unassigned) [70 (isomer 1)] | < 10 | – | < 0.5 | – | –
22 | CSc1cc(C)[nH]c(=O)c1CNC(=O)c1c(C)n([C@H](C)[C@@H]2CCN(C3CC3)CC2(F)F)c2ncccc12 (single isomer, unassigned) [70 (isomer 2)] | > 100 | – | 0.5 to 5 | – | –
23 | CSc1cc(C)[nH]c(=O)c1CNC(=O)c1c(C)n([C@H](C)C2CCC(N3CCOCC3)CC2)c2ccccc12 (single isomer, unassigned) [75 (isomer 1)] | 10 to 100 | – | < 0.5 | – | –
24 | CSc1cc(C)[nH]c(=O)c1CNC(=O)c1c(C)n([C@H](C)C2CCC(N3CCOCC3)CC2)c2ccccc12 (single isomer, unassigned) [75 (isomer 2)] | – | 10 to 100 | – | < 0.5 | –
25 | COC1CN(C2CCC([C@@H](C)n3c(C)c(C(=O)NCc4c(SC)cc(C)[nH]c4=O)c4cccnc43)CC2)C1 (single isomer, unassigned) [76 (isomer 1)] | – | < 10 | < 0.5 | – | –
26 | COC1CN(C2CCC([C@@H](C)n3c(C)c(C(=O)NCc4c(SC)cc(C)[nH]c4=O)c4cccnc43)CC2)C1 (single isomer, unassigned) [76 (isomer 2)] | – | > 100 | 0.5 to 5 | – | –
